# Data published in patent publication US4018786A, “2-Aminothiazolines and a process for preparation thereof” (Centre d'Etudes pour l'Industrie Pharmaceutique, priority 1974, dated 1977).
# Counter-ions that a name gives are not always drawn.
# What was measured:
# [1] = tested on: carrageenin-induced oedema; assay: Localised carrageenin-induced oedema method (anti-inflammatory action); format: in vivo, rat; details: for percentage of anti-inflammatory activity, First Hour / percentage of anti-inflammatory activity, Second Hour / percentage of anti-inflammatory activity, Third Hour / percentage of anti-inflammatory activity, Fifth Hour: 100 mg/kg oral per administration, rat; for percentage of anti-inflammatory activity, First Hour: 1 hour after carrageenin; for percentage of anti-inflammatory activity, Second Hour: 2 hours after carrageenin; for percentage of anti-inflammatory activity, Third Hour: 3 hours after carrageenin; for percentage of anti-inflammatory activity, Fifth Hour: 5 hours after carrageenin
# Description: a. Localised carrageenin-induced oedema method
# A 1% solution of carrageenin (0.1 ml) is injected into the metatarsal flexor muscles of the right hand rear paw of the rat at time "0".
# The animals of the treated group also receive, by the oral route, 100 mg/kg of the compound to be tested, respectively 1 hour before and at the same time as the injection of the phlogogenic agent, then 1 hour and 21/2 hours after. The measurements made with the aid of a micrometer at the time "0" and 1 hour, 2 hours, 3 hours and 5 hours after the administration of the carrageenin, enable one to determine, in relation to time, the percentage of anti-inflammatory activity in relation to the control group.
# a. method of localised carrageenin-induced oedema
# The oral administration of […] of the derivatives to be tested produces a clear reduction of the inflammatory reaction provoked.
# [2] = tested on: ovalbumin-induced oedema; assay: Generalised ovalbumin-induced oedema method (anti-inflammatory action); format: in vivo, rats; details: for percentage of decrease of the oedematic reaction, Second Hour / percentage of decrease of the oedematic reaction, Third Hour: 100 mg oral, rats
# Description: b. Generalised ovalbumin-induced oedema method
# A simultaneous intraperitoneal injection of 1 ml of ovalbumin and of 0.5 ml of an aqueous solution of Evans Blue at 1 ml per thousand by weight is administered to rats.
# For comparative purposes, 100 mg of the compound to be tested is administered orally to the animals of the group to be treated, 1 hour before and at the same time as the ovalbumin. The intensity of the phenomenon thus provoked in noted by a FIG. 1 to 5 according to the intensity of the inflammatory syndrome.
# Thus one determines the average of the oedematic intensity and the percentage of decrease of the oedematic reaction in relation to the control animals.
# b. method of generalised ovalbumin-induced oedema
# The percentages of reduction of oedematic reaction, in the test animals, in subjects treated by the oral route by the administration of […] of the compound to be tested show the clear anti-inflammatory action of the compounds according to the invention.
# [3] = Propyl-thiouracil test (hypocholesterolemic action); format: in vivo, rats
# Description: a. Propyl-thiouracil test (RANNEY et Coll. J. Pharmacol. Exper. Therap. 1963, 142, 132-136)
# The administration of propyl-thiouracil to adult rats renders them hypercholesterolemic; in effect, the plasmatic cholesterol rate has increased by about 15%. The testing is carried out on two groups of rats, the control group receiving the propyl-thiouracil only whilst the treated group also receives 100 mg/kg of the compounds to be tested, by the oral route.
# On the 11th day of the experiment, the blood samples are taken and the β-lipoproteins, the free cholesterol and the total cholesterol measured.
# a. Propyl-thiouracil test (Ranney et Coll. J. Pharmacol. Exper. Therap. 1963, 142, 132-136)
# This test has shown the clearly favourable action of the derivatives according to the invention, at a dose of […].
# [4] = Triton test (hypocholesterolemic action); format: in vivo, rat; details: for reduction of free cholesterol and of total cholesterol: 100 mg/kg oral, rat, 18 hours after Triton
# Description: The intravenous injection of Triton W-R 1339 (an alkylaryl polyetheralcohol sold by Rohm and Haas) enables one to artifically increase, in the rat, certain lipidic fractions of serum and thus to evalute the hypocholesterolemic action of the compounds of the invention. […]
# Eighteen hours later a blood sample is taken and the β-lipoproteins, the free cholesterol and the cholesterol are determined.
# This test, which enables one to evaluate the hypocholesterolemic action of the derivatives to be tested, on serum levels of certain lipid fractions, has shown the remarkable effect of the compounds according to the invention.
# [5] = LD50/24 hours by the method of Miller & Tainter, intravenous route (derivatives 34 to 38, species not restated); details: in vivo, read-out: LD50 /24 hours /kg of body weight
# [6] = 100 mg/kg oral, rats, 11th day, control 0.20 g/l
# [7] = 100 mg/kg oral, rats, 11th day, control 0.86 g/l
Structure (SMILES),"percentage of anti-inflammatory activity, First Hour [1] [%]","percentage of anti-inflammatory activity, Second Hour [1] [%]","percentage of anti-inflammatory activity, Third Hour [1] [%]","percentage of anti-inflammatory activity, Fifth Hour [1] [%]","percentage of decrease of the oedematic reaction, Second Hour [2] [%]","percentage of decrease of the oedematic reaction, Third Hour [2] [%]",also measured
"CCN(CC)CCC1CN=C(NC2CCCCC2)S1 (stereo not drawn) [Derivative No. 3, 2-cyclohexlamino 5-β-diethylaminoethyl Δ^2-thiazoline]",37,39,46,48,54,60,–
"CCN(CC)CC=C1CN=C(NCC(O)c2ccccc2)S1 (stereo not drawn) [Derivative No. 4, 2-β-hydroxyphenethylamino 5-(N-diethylaminoethylidene) Δ^2-thiazoline]",39,40,49,53,59,65,–
"CCCCNc1ncc(CCN(CC)CC)s1 [Derivative No. 9, 2-butylamino 5-β-diethylaminoethyl thiazole dihydrochloride]",–,–,–,–,–,–,"Free cholesterol [3, 6]: 0.15 g/L; Total cholesterol [3, 7]: 0.58 g/L; reduction of free cholesterol and of total cholesterol [4]: ~24%"
"CCN(CC)CC=C1CN=C(N(CC)C2CCCCC2)S1 [Derivative No. 10, 5-(β-diethylaminoethylidene) 2-N-ethyl N-cyclohexylamino) Δ^2-thiazoline oxalate]",44,47,52,56,57,64,–
"CCN(CC)CC=C1CN=C(N(CC)CC)S1 [Derivative No. 15, 2-diethylamino 5-(2-diethylaminoethylidene) Δ^2-thiazoline dioxalate]",–,–,–,–,–,–,"Free cholesterol [3, 6]: 0.12 g/L; Total cholesterol [3, 7]: 0.58 g/L; reduction of free cholesterol and of total cholesterol [4]: ~22%"
"CCN(CC)CCc1cnc(N(C)C2CCCCC2)s1 [Derivative No. 22, 5-β-diethylaminoethyl 2-(N-methyl N-cyclohexylamino)-thiazole dioxalate]",42,46,54,56,52,60,–
"Clc1ccc(N2CCN(CC=C3CN=C(NC4CCCCC4)S3)CC2)cc1 [Derivative No. 34, 5-[4-β-(parachlorophenyl)piperazinoethylidene] 2-cyclohexylamino Δ^2-thiazoline]",–,–,–,–,–,–,"LD50 at 24 h [5]: 35 mg/kg; Free cholesterol ([3]; 50 mg/kg, control 0.25): 0.13; Total cholesterol ([3]; 50 mg/kg, control 0.89): 0.55; reduction of free cholesterol and total cholesterol levels ([4]; 50 mg/kg oral): ~34%; reduction of the inflammatory reaction, 1st hour ([1]; 50 mg/kg oral, 1st hour): 40; reduction of the inflammatory reaction, 2nd hour ([1]; 50 mg/kg oral, 2nd hour): 44; reduction of the inflammatory reaction, 3rd hour ([1]; 50 mg/kg oral, 3rd hour): 50; reduction of the inflammatory reaction, 4th hour ([1]; 50 mg/kg oral, 4th hour): 53; reduction of the inflammatory reaction, 5th hour ([1]; 50 mg/kg oral, 5th hour): 55; percentage of reduction of oedematic reaction, 1st hour ([2]; 50 mg/kg oral, 1st hour): 58%; percentage of reduction of oedematic reaction, 2nd hour ([2]; 50 mg/kg oral, 2nd hour): 62%"
